Data taken from ChEMBL document CHEMBL1201862, “PubChem BioAssay data set” (2004).
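48-hour exposure; five concentrations; linearly interpolated endpoints. The concentration for 50% growth inhibition is given as GI50.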 Active and inactive are the calls of the source. Cut-off read from the data, not from the text of the source: active = GI50 up to about 1.1 µM and inactive = higher.

Experiments:
Test in all cases: NCI anticancer screen, dose series, 48 h
[1] = system: A498
[2] = system: NCI-H23
[3] = system: SK-MEL-5
[4] = system: A549
[5] = system: SF-295
[6] = system: SR
[7] = system: SK-MEL-2
[8] = system: U-251
[9] = system: HCC 2998
[10] = system: UACC-257
[11] = system: CCRF-CEM
[12] = system: HOP-62
[13] = system: M19-MEL
[14] = system: LOX IMVI
[15] = system: IGROV-1
[16] = system: OVCAR-3
[17] = system: K562
[18] = system: SNB-75
[19] = system: HOP-92
[20] = system: UO-31
[21] = system: Malme-3M
[22] = system: UACC-62
[23] = system: HCT-15
[24] = system: DMS-114
[25] = system: SK-MEL-28
[26] = system: HT-29
[27] = system: SF-268
[28] = system: LXFL 529
[29] = system: DMS-273
[30] = system: SK-OV-3
[31] = system: EKVX
[32] = system: KM-20L2
[33] = system: HCT-116
[34] = system: 786-0
[35] = system: RPMI-8226
[36] = system: KM12
[37] = system: M14
[38] = system: SNB-78
[39] = system: SF-539
[40] = system: COLO 205
[41] = system: DLD-1
[42] = system: HL-60
[43] = system: NCI-H226
[44] = system: NCI-H460
[45] = system: OVCAR-8
[46] = system: OVCAR-4
[47] = system: NCI-H522
[48] = system: RXF 393
[49] = system: ACHN
[50] = system: OVCAR-5
[51] = system: MOLT-4
[52] = system: SN12C
[53] = system: TK-10
[54] = system: HOP-18

Measured: GI50

N#CCC(=O)N/N=C(\C(=O)Nc1ccc(Cl)c(Cl)c1)C1CN(c2ccccc2)N=C1N (centres undefined)
inactive: [1] > 100 µM | [2] > 100 µM | [3] > 100 µM | [4] > 100 µM | [5] > 100 µM | [6] > 100 µM | [7] > 100 µM | [8] > 100 µM | [9] > 100 µM | [10] > 100 µM | [11] 54 µM | [12] > 100 µM | [13] > 100 µM | [14] > 100 µM | [15] > 100 µM | [16] > 100 µM | [17] > 100 µM | [18] > 100 µM | [19] > 100 µM | [20] > 100 µM | [21] > 100 µM | [22] > 100 µM | [24] > 100 µM | [25] > 100 µM | [26] > 100 µM | [27] > 100 µM | [28] > 100 µM | [29] > 100 µM | [30] > 100 µM | [31] > 100 µM | [32] > 100 µM | [33] > 100 µM | [34] > 100 µM | [35] > 100 µM | [36] > 100 µM | [37] > 100 µM | [38] > 100 µM | [39] > 100 µM | [40] > 100 µM | [41] > 100 µM | [42] > 100 µM | [43] > 100 µM | [44] > 100 µM | [45] > 100 µM | [46] > 100 µM | [47] > 100 µM | [48] > 100 µM | [49] > 100 µM | [50] > 100 µM | [51] 49.8 µM | [52] > 100 µM | [53] > 100 µM | [54] > 100 µM
> 100 µM: [23]
